Data on 1 compound can be found in PMC8646019, “Azvudine is a thymus-homing anti-SARS-CoV-2 drug effective in treating COVID-19 patients” (Signal Transduction and Targeted Therapy, 2021).

The data set in a line: Biodistribution and metabolism of FNC in rats (UHPLC-MS/MS). The note with it: male, Sprague-Dawley, in vivo, rat, FNC 5 mg/kg oral, average n=5, read-out: Concentration in kidney. On the procedure: Fig. 2 Thymus-homing distribution and metabolism of FNC after oral administration in rats. Twenty-five male Sprague–Dawley rats were orally administered with FNC at a single dose of 5 mg/kg. At the time point of 1, 2, 6, 12, and 24 h after drug administration, 5 rats were dissected. The blood, as well as the heart, liver, spleen, lung, kidney, brain, thymus, testis, and epididymis, were collected. Peripheral blood mononuclear cells (PBMCs) were isolated from blood using Histopaque-1083. The distribution of FNC in plasma, PBMCs, and the different tissues was evaluated through UHPLC–MS/MS analysis performed on an UHPLC system (1290 series, Agilent Technologies, USA) coupled to a triple quadrupole mass spectrometer (Agilent 6470 QQQ). a Metabolic pathway of FNC. b FNC distribution in tissues and plasma (5 mg/kg, oral). c FNC-TP levels in the blood (5 mg/kg, oral). d FNC-TP levels in tissues (5 mg/kg, oral). e FNC and its phosphate metabolites (FNC-MP, FNC-DP, and FNC-TP) in the thymus (5 mg/kg). f FNC and its phosphate metabolites in PBMCs (5 mg/kg).
25 male Sprague-Dawley rats (200 ± 15 g) were purchased from Vital River Laboratories Co., LTD (Beijng, China). The animals were housed under specific pathogen-free conditions (12 h light/12 h dark photoperiod, 25 ± 2°C, 50±5% relative humidity). All rats were allowed to acclimate for 1 week before experiments. Research was conducted in accordance with all institutional guidelines and ethics and approved by the Laboratories Institutional Animal Care and Use Committee of the Chinese Academy of Medical Sciences and Peking Union Medical College.
Rats were divided randomly into five groups with five rats in each, and were administered with azvudine at a single dose of 5 mg/kg. At the time point of 1h, 2h, 6h, 12h and 24h after drug administration, rats in one group were dissected with euthanization and blood samples were collected using heparin as an anticoagulant. 0.5 ml of blood was transferred to another 1.5ml eppendorf tube to obtain plasma by centrifugation (3500 r/min ×15 min). The tissues, including heart, liver, spleen, lung, kidney, brain, thymus, testis, and epididymis, were collected, and washed with cold 0.9% normal saline, and then kept at -80°C until analysis.
Peripheral blood mononuclear cells (PBMCs) were isolated from blood using Histopaque-1083 according to the manufacturer’s protocol. Firstly, 2 mL of blood collected in heparin sodium tube was diluted with 2 mL of PBS solution. Then, 4mL of diluted blood was layered on top of 4 mL Histopaque-1083 and centrifuged for 30 min at 2000 r/min. PBMCs were then aspirated, washed twice with PBS solution, suspended in PBS, and counted with a hemocytometer. Furtherly, PBMCs were centrifuged (2000 r/min ×10 min), lysed with 1ml of cold 80% methanol for 12h, then ultrasonic for cell disruption (3min). Finally, the cell lysates were stored in -80°C until sample preparation.
Tissue samples were weighed and 2-fold volume of 0.9% saline containing phosphatase inhibitor was added to prepare the homogenate on the ice. Then tissue homogenate was ultrasonic extracted for 5 min in the ice bath. 200μL of plasma or tissue homogenate was transferred into a 1.5 ml eppendorf tube and added 600 μL of methanol solution with internal standards. The sample was vortexed for 5 min and kept at 4°C for 15min, then centrifuged at 13000r/min for 10 min (4°C). […]

As for `[N-]=[N+]=N[C@]1(CO)O[C@@H](n2ccc(N)nc2=O)[C@@H](F)[C@@H]1O` [FNC, 2′-deoxy-2′-β-fluoro-4′-azidocytidine], the concentration at 1 h (1 h) turned out to be 515 ng/g. Also, the concentration at 2 h (2 h) was determined as 798 ng/g. Besides, the concentration at 6 h (6 h) was found to be 269 ng/g. Besides, where the note is “12 h”, the concentration at 12 h is 76.5 ng/g. Besides, the concentration at 24 h (24 h) was determined as 78.1 ng/g.
